According to publication PMC9516332 (Frontiers in Oncology, 2022):
Where two headings read alike, the source gives them in different places.

Tested on: 134 cancer cell lines
Assay: Cell viability assay (ATPlite, 72 hours), IC50 on cancer cell line panel

COc1ccc(CN2C3CC2CN(c2ccc(-c4cc(OCC(C)(C)O)cn5ncc(C#N)c45)cn2)C3)cn1 [selpercatinib]
IC50 (Homo sapiens, MOLM-13, read-out: IC50 in cell proliferation assay, MOLM-13 cell line (FLT3 ITD)): 0.123 µM | IC50 (Homo sapiens, MOLT-4, read-out: IC50 in cell proliferation assay, MOLT-4 cell line): 1.67 µM | IC50 (Homo sapiens, MV4-11, read-out: IC50 in cell proliferation assay, MV4-11 cell line (FLT3 ITD)): 0.167 µM | IC50 (Homo sapiens, MeWo, read-out: IC50 in cell proliferation assay, MeWo cell line): 5.53 µM | IC50 (Homo sapiens, NCCIT, read-out: IC50 in cell proliferation assay, NCC-IT cell line): 1.58 µM | IC50 (Homo sapiens, NCI-H82, read-out: IC50 in cell proliferation assay, cell line NCI-H82): 3.23 µM | IC50 (Homo sapiens, NCI-H460, read-out: IC50 in cell proliferation assay, NCI-H460 cell line): 4.27 µM | IC50 (Homo sapiens, NCI-H661, read-out: IC50 in cell proliferation assay, NCI-H661 cell line): 8.68 µM | IC50 (Homo sapiens, NCI-H716, read-out: IC50 in cell proliferation assay, cell line NCI-H716 (FGFR2-COL14A1)): 0.262 µM | IC50 (Homo sapiens, NCI-H1650, read-out: IC50 in cell proliferation assay, NCI-H1650 cell line (EGFR exon19del)): 7.36 µM | IC50 (Homo sapiens, NCI-H1975, read-out: IC50 in cell proliferation assay, NCI-H1975 cell line (EGFR p.L858R + p.T790M)): 22.4 µM | IC50 (Homo sapiens, NCI-H2228, read-out: IC50 in cell proliferation assay, NCI-H2228 cell line (EML4-ALK)): 10.2 µM | IC50 (Homo sapiens, OVCAR-3, read-out: IC50 in cell proliferation assay, cell line OVCAR-3): 5.67 µM | IC50 (Homo sapiens, PFSK-1, read-out: IC50 in cell proliferation assay, cell line PFSK-1): > 31.6 µM | IC50 (Homo sapiens, RL95-2, read-out: IC50 in cell proliferation assay, cell line RL95-2 (EGFR p.A289V)): 2.28 µM | IC50 (Homo sapiens, RPMI-7951, read-out: IC50 in cell proliferation assay, cell line RPMI-7951 (BRAF p.V600E)): 5.59 µM | IC50 (Homo sapiens, RS4-11, read-out: IC50 in cell proliferation assay, cell line RS4;11): 1.63 µM | IC50 (Homo sapiens, Rec1, read-out: IC50 in cell proliferation assay, cell line REC-1): 7.32 µM | IC50 (Homo sapiens, SHP77, read-out: IC50 in cell proliferation assay, cell line SHP-77): 8.18 µM | IC50 (Homo sapiens, SK-BR-3, read-out: IC50 in cell proliferation assay, cell line SK-BR-3 (ERBB2 amplification)): 22.6 µM | IC50 (Homo sapiens, SK-N-AS, read-out: IC50 in cell proliferation assay, cell line SK-N-AS): 3.81 µM | IC50 (Homo sapiens, SK-N-FI, read-out: IC50 in cell proliferation assay, cell line SK-N-FI): 4 µM | IC50 (Homo sapiens, SK-N-MC, read-out: IC50 in cell proliferation assay, cell line SK-N-MC): 3.28 µM | IC50 (Homo sapiens, SK-N-SH, read-out: IC50 in cell proliferation assay, cell line SK-N-SH (ALK p.F1174L)): 2.59 µM | IC50 (Homo sapiens, SNU-5, read-out: IC50 in cell proliferation assay, cell line SNU-5 (MET amplification)): > 31.6 µM | IC50 (Homo sapiens, SNU-16, read-out: IC50 in cell proliferation assay, cell line SNU-16 (FGFR2 amplification)): 0.304 µM | IC50 (Homo sapiens, SNU-C2B, read-out: IC50 in cell proliferation assay, cell line SNU-C2B (EGFR p.R165Q)): > 31.6 µM | IC50 (Homo sapiens, SU-DHL-1, read-out: IC50 in cell proliferation assay, cell line SU-DHL-1 (NPM1-ALK)): 2.76 µM | IC50 (Homo sapiens, SU-DHL-6, read-out: IC50 in cell proliferation assay, cell line SU-DHL-6): 4.61 µM | IC50 (Homo sapiens, SUP-T1, read-out: IC50 in cell proliferation assay, cell line SUP-T1): 2.33 µM | IC50 (Homo sapiens, SW48, read-out: IC50 in cell proliferation assay, cell line SW48 (EGFR p.G719S)): 2.74 µM | IC50 (Homo sapiens, SW480, read-out: IC50 in cell proliferation assay, cell line SW480): 4.03 µM | IC50 (Homo sapiens, SW626, read-out: IC50 in cell proliferation assay, cell line SW626): > 31.6 µM | IC50 (Homo sapiens, SW780, read-out: IC50 in cell proliferation assay, cell line SW780 (FGFR3-BAIAP2L1)): 1.95 µM | IC50 (Homo sapiens, SW837, read-out: IC50 in cell proliferation assay, cell line SW837): 3.48 µM | IC50 (Homo sapiens, SW872, read-out: IC50 in cell proliferation assay, cell line SW872 (BRAF p.V600E)): 5.78 µM | IC50 (Homo sapiens, SW900, read-out: IC50 in cell proliferation assay, cell line SW900): 5.03 µM | IC50 (Homo sapiens, SW948, read-out: IC50 in cell proliferation assay, cell line SW948): 3.92 µM | IC50 (Homo sapiens, SW982, read-out: IC50 in cell proliferation assay, cell line SW982 (BRAF p.V600E)): 3.57 µM | IC50 (Homo sapiens, SW-620, read-out: IC50 in cell proliferation assay, cell line SW620): 2.62 µM | IC50 (Homo sapiens, T98G, read-out: IC50 in cell proliferation assay, cell line T98G): 2.69 µM | IC50 (Homo sapiens, TCC-SUP, read-out: IC50 in cell proliferation assay, cell line TCCSUP): 3.13 µM | IC50 (Homo sapiens, THP-1, read-out: IC50 in cell proliferation assay, cell line THP-1): > 31.6 µM | IC50 (Homo sapiens, U2OS, read-out: IC50 in cell proliferation assay, cell line U2OS): 4.78 µM | IC50 (Homo sapiens, U-87 MG, read-out: IC50 in cell proliferation assay, cell line U-87MG ATCC): > 31.6 µM | IC50 (Homo sapiens, U-118-MG, read-out: IC50 in cell proliferation assay, cell line U-118MG): 6.34 µM | IC50 (Homo sapiens, UMUC3, read-out: IC50 in cell proliferation assay, cell line UM-UC-3): 1.3 µM | IC50 (Hs766T, read-out: IC50 in cell proliferation assay, Hs 766T cell line): 4.97 µM | IC50 (L-82, read-out: IC50 in cell proliferation assay, L-82 cell line (NPM1-ALK)): 5.23 µM | IC50 (Rh30, read-out: IC50 in cell proliferation assay, cell line Rh30): 4.03 µM | IC50 (read-out: IC50 in cell proliferation assay, 11-18 cell line (EGFR p.L858R)): 4.08 µM | IC50 (read-out: IC50 in cell proliferation assay, Hs 852.T cell line): 5.9 µM | IC50 (read-out: IC50 in cell proliferation assay, JAR cell line): 4.4 µM | IC50 (read-out: IC50 in cell proliferation assay, cell line 5637): 4.53 µM | IC50 (read-out: IC50 in cell proliferation assay, cell line A-388): 9.59 µM | IC50 (read-out: IC50 in cell proliferation assay, cell line DB): 3.37 µM | IC50 (read-out: IC50 in cell proliferation assay, cell line DEL (NPM1-ALK)): 3.36 µM | IC50 (read-out: IC50 in cell proliferation assay, cell line ES-2 (BRAF p.V600E)): > 31.6 µM | IC50 (read-out: IC50 in cell proliferation assay, cell line PA-1): 1.82 µM | IC50 (read-out: IC50 in cell proliferation assay, cell line PC-3): 3.85 µM | IC50 (read-out: IC50 in cell proliferation assay, cell line RD): 6.94 µM | IC50 (read-out: IC50 in cell proliferation assay, cell line RKO (BRAF p.V600E)): 5.12 µM | IC50 (read-out: IC50 in cell proliferation assay, cell line RL): 2.06 µM | IC50 (read-out: IC50 in cell proliferation assay, cell line RT-4 (FGFR3-TACC3)): 1.38 µM | IC50 (read-out: IC50 in cell proliferation assay, cell line SR (NPM1-ALK)): 2.58 µM | IC50 (read-out: IC50 in cell proliferation assay, cell line T24): 5.15 µM | IC50 (read-out: IC50 in cell proliferation assay, cell line TT (RET p.C634W)): 0.019 µM | IC50 (read-out: IC50 in cell proliferation assay, cell line VA-ES-BJ): 2.79 µM
